Assay results: patent US8927551B2, “Isoxazolines as inhibitors of fatty acid amide hydrolase” (Infinity Pharmaceuticals, Inc., priority 2009, dated 2015)

Biological target: T1, human FAAH (Homo sapiens, UniProt O00519)
T1 construct: host or cells: COS-7 cells, transient transfection; 13,000 g membrane fraction solubilised in 1% Triton X-100
T1 sequence (O00519 1-579): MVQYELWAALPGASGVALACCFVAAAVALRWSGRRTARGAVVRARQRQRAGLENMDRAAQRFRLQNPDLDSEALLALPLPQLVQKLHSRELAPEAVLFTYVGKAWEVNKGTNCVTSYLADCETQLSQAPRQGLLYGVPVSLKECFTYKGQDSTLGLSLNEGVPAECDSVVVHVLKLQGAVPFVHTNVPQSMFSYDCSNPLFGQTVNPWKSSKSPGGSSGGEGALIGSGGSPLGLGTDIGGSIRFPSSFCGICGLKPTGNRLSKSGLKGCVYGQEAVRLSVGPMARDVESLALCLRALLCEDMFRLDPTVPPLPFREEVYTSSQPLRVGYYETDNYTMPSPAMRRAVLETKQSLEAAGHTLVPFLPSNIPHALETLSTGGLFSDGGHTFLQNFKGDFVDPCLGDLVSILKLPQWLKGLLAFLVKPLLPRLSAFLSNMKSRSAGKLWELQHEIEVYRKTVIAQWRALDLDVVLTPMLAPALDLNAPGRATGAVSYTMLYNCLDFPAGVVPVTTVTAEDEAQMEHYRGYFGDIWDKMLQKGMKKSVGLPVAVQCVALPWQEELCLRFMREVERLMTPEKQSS
Test: Inhibition of human FAAH (fluorescence assay, AMC Arachidonoyl Amide substrate)
Assay type: biochemical
Settings: solubilized human FAAH from transfected COS-7 cells; 30 minutes preincubation; 20 μM AMC-Arachidonoyl substrate; 4 hours at room temperature
Method: Human FAAH Preparation: COS-7 cells were split the day before, 1:5 into 150 mm×25 mm cell culture dishes (Corning Inc., Cat. No. 430599). Transient transfection took place at 30-40% confluency according to FuGENE 6 Transfection Reagent (Roche, Cat. No. 11814 443 001).
Transfection Procedure: The FuGENE transfection 6 reagent (45 uL) was added to 1410 μL of media (DMEM, serum free without pen/strep) in a 15 mL conical tube and incubated at room temp for 5 minutes, followed by the addition of FAAH plasmid DNA (15 μg) (OriGene Cat. No. TC119221, Genbank Accession No. NM 001441.1, 0.67 ug/uL) and a further incubation of 15 minutes at room temperature. The resulting solution was added into one dish of 30-40% confluent COS-7 cells in a drop-wise manner. The COS-7 cell dish was subsequently incubated for 48 hours. The cells are then harvested.
Harvest procedure: Media was aspirated from the dishes and the cells rinsed with 10 mL PBS. The PBS was removed and 3 mL of PBS added to the dish. The dish was scraped to resuspend the cells, and the subsequent cell suspension collected into a 15 mL conical tube. The cells were pelleted by centrifugation at 1200 rpm for 5 minutes in a bench top centrifuge. PBS was removed and the cell pellet snap frozen in liquid nitrogen and stored at −80° C.
COS-7 Cells—FAAH Purification: • (1) Fractionation: Frozen cell pellets from transient transfections were thawed on ice and resuspended in 12.5 mM Hepes pH 8.0, 100 mM NaCl, 1 mM EDTA (10 mL/0.2 g cell pellet). The pellets were dounce homogenized and then sonicated to produce cell extract. The cell extract was subsequently centrifuged at 1000 g to remove cellular debris. The pellet was discarded and the supernatant centrifuged at 13,000 g for 20 minutes. The pellet contained membrane bound FAAH. The supernatant was discarded and the pellet resolubilized. • (2) Re-solubilization: The fraction of interest, (13,000 g, membrane fraction) was re-suspended in 2.3 mL re-suspension buffer (20 mM Hepes pH 7.8, 10% v/v Glycerol, 1 mM EDTA, 1% Triton X-100) and the sample incubated on ice for 1 hour and then centrifuged to remove any particulate matter. The supernatant containing solubilized human FAAH was aliquoted and snap frozen in liquid nitrogen and stored at −80° C. until use. • (3) Characterization: Protein Concentration determined by Bradford assay. • SDS gel and Western blot to confirm presence of FAAH • FAAH activity assay • Km determination—96-well assay • Linear dependence—96-well assay • Standard compound Ki determination—384-well assay
Human FAAH assay; Experimental Protocol: A 0.1 mg/mL Human FAAH solution was made up in FAAH reaction buffer, and 24 ul pipeted into a 384 well plate. To this was added 1 μL of a 3 fold serially diluted inhibitor from a DMSO stock solution. The FAAH solution and inhibitor were incubated for 30 minutes at room temperature. The FAAH reaction was initiated by the addition of 25 μL of 40 μM AMC Arachidonoyl Amide in FAAH reaction buffer, yielding a final reaction human FAAH preparation concentration of 0.05 mg/ml and AMC-Arachidonoyl substrate concentration of 20 μM, reaction volume 50 μL. The reaction was allowed to proceed for 4 hours at room temperature. The reaction was stopped by the addition of 25 μL 12 μM a-ketoheterocycle (Cayman Chemicals, catalogue # 10435). The microtiter plate was read in the envision plate reader.
The raw fluorescence was plotted on the y axis and the inhibitor concentration on the x axis to give a dose response inhibition curve. The data was fitted to a single site competitive inhibition equation, fixing the Km for the human enzyme to 12 μM and 9 μM respectively.

Structure (SMILES)	Ki
BrC1=NO[C@@H](c2ccncc2)C1 [II-1a]	≥ 1000 nM
BrC1=NO[C@H](c2ccncc2)C1 [II-1b]	≥ 1000 nM
BrC1=NO[C@@H](c2cccnc2)C1 [II-2a]	≥ 1000 nM
BrC1=NO[C@H](c2cccnc2)C1 [II-2b]	≥ 1000 nM
BrC1=NO[C@@H](c2ccccn2)C1 [II-3a]	≥ 1000 nM
BrC1=NO[C@H](c2ccccn2)C1 [II-3b]	≥ 1000 nM
BrC1=NO[C@H](c2cnn(-c3ccccc3)c2)C1 [II-4-b]	100 to 1000 nM
BrC1=NO[C@@H](c2cnn(-c3ccccc3)c2)C1 [II-4a]	100 to 1000 nM
BrC1=NO[C@@H](c2csc(-c3ccccc3)n2)C1 [II-5a]	≥ 1000 nM
BrC1=NO[C@H](c2csc(-c3ccccc3)n2)C1 [II-5b]	≥ 1000 nM
BrC1=NO[C@@H](c2ccc3nccnc3c2)C1 [II-11a]	≤ 100 nM
BrC1=NO[C@H](c2ccc3nccnc3c2)C1 [II-11b]	≤ 100 nM
CC(C)(C)OC(=O)Nc1nc2ccc([C@H]3CC(Br)=NO3)cc2s1 [II-13a]	100 to 1000 nM
CC(C)(C)OC(=O)Nc1nc2ccc([C@@H]3CC(Br)=NO3)cc2s1 [II-13b]	100 to 1000 nM
O=C(OCc1ccccc1)N1CCC([C@H]2CC(Br)=NO2)CC1 [II-15a]	100 to 1000 nM
O=C(OCc1ccccc1)N1CCC([C@@H]2CC(Br)=NO2)CC1 [II-15b]	100 to 1000 nM
C[C@]1(c2cnc(-c3ccccc3)s2)CC(Br)=NO1 [II-18a]	≤ 100 nM
C[C@@]1(c2cnc(-c3ccccc3)s2)CC(Br)=NO1 [II-18b]	≤ 100 nM
C[C@@H]1C(Br)=NO[C@H]1c1cnc(-c2ccccc2)s1 [II-20a]	≥ 1000 nM
C[C@H]1C(Br)=NO[C@@H]1c1cnc(-c2ccccc2)s1 [II-20b]	≥ 1000 nM
Cc1nc(-c2ccccc2)sc1[C@@]1(C)CC(Br)=NO1 [II-24a]	100 to 1000 nM
Cc1nc(-c2ccccc2)sc1[C@]1(C)CC(Br)=NO1 [II-24b]	100 to 1000 nM
O[C@H](CNC1=NO[C@@H](c2cc(-c3ccccc3)cs2)C1)c1ccccc1 [II-30a]	≥ 1000 nM
O[C@@H](CNC1=NO[C@@H](c2cc(-c3ccccc3)cs2)C1)c1ccccc1 [II-31a]	≥ 1000 nM
O[C@@H](CNC1=NO[C@H](c2cc(-c3ccccc3)cs2)C1)c1ccccc1 [II-31b]	≥ 1000 nM

Further lines, results first:

Ki	Structure (SMILES)
≤ 100 nM	BrC1=NO[C@@H](c2cnc(-c3ccccc3)s2)C1 [II-6a]
≤ 100 nM	BrC1=NO[C@H](c2cnc(-c3ccccc3)s2)C1 [II-6b]
≤ 100 nM	BrC1=NO[C@@H](c2ccc(-c3ccccc3)s2)C1 [II-7a]
≤ 100 nM	BrC1=NO[C@H](c2ccc(-c3ccccc3)s2)C1 [II-7b]
≤ 100 nM	BrC1=NO[C@@H](c2cc(-c3ccccc3)cs2)C1 [II-8a]
≤ 100 nM	BrC1=NO[C@H](c2cc(-c3ccccc3)cs2)C1 [II-8b]
≤ 100 nM	BrC1=NO[C@@H](c2ccc3ncccc3c2)C1 [II-9a]
≤ 100 nM	BrC1=NO[C@H](c2ccc3ncccc3c2)C1 [II-9b]
≤ 100 nM	BrC1=NO[C@@H](c2cnc3ccccc3c2)C1 [II-10a]
≤ 100 nM	BrC1=NO[C@H](c2cnc3ccccc3c2)C1 [II-10b]
≤ 100 nM	CC(C)(C)OC(=O)N1CCN(C[C@H]2CC(Br)=NO2)CC1 [II-14a]
≤ 100 nM	CC(C)(C)OC(=O)N1CCN(C[C@@H]2CC(Br)=NO2)CC1 [II-14b]
≤ 100 nM	CC(C)(C)OC(=O)N1CCC([C@H]2CC(Br)=NO2)CC1 [II-16a]
≤ 100 nM	CC(C)(C)OC(=O)N1CCC([C@@H]2CC(Br)=NO2)CC1 [II-16b]
≤ 100 nM	Clc1ccc(-c2ncc([C@H]3CC(Br)=NO3)s2)cc1 [II-17a]
≤ 100 nM	Clc1ccc(-c2ncc([C@@H]3CC(Br)=NO3)s2)cc1 [II-17b]
≤ 100 nM	C[C@H]1C(Br)=NO[C@H]1c1cnc(-c2ccccc2)s1 [II-19a]

Ki	Structure (SMILES)
≤ 100 nM	C[C@@H]1C(Br)=NO[C@@H]1c1cnc(-c2ccccc2)s1 [II-19b]
≤ 100 nM	c1ccc(-c2ncc([C@H]3CC(Oc4cccnc4)=NO3)s2)cc1 [II-21a]
≤ 100 nM	c1ccc(-c2ncc([C@@H]3CC(Oc4cccnc4)=NO3)s2)cc1 [II-21b]
≤ 100 nM	C[C@]1(c2cnc(-c3ccccc3)s2)CC(Oc2cncnc2)=NO1 [II-22a]
≤ 100 nM	C[C@@]1(c2cnc(-c3ccccc3)s2)CC(Oc2cncnc2)=NO1 [II-22b]
≤ 100 nM	C[C@]1(c2cnc(-c3ccccc3)s2)CC(Oc2cccnc2)=NO1 [II-23a]
≤ 100 nM	C[C@@]1(c2cnc(-c3ccccc3)s2)CC(Oc2cccnc2)=NO1 [II-23b]
≤ 100 nM	BrC1=NO[C@@H](c2ccc(-c3cccnc3)s2)C1 [II-25a]
≤ 100 nM	BrC1=NO[C@H](c2ccc(-c3cccnc3)s2)C1 [II-25b]
≤ 100 nM	c1cncc(-c2ccc([C@H]3CC(Oc4cncnc4)=NO3)s2)c1 [II-26a]
≤ 100 nM	c1cncc(-c2ccc([C@@H]3CC(Oc4cncnc4)=NO3)s2)c1 [II-26b]
≤ 100 nM	O=C(O)c1ccc(OC2=NO[C@@H](c3ccc(-c4cccnc4)s3)C2)cn1 [II-27a]
≤ 100 nM	O=C(O)c1ccc(OC2=NO[C@H](c3ccc(-c4cccnc4)s3)C2)cn1 [II-27b]
≤ 100 nM	CS(=O)(=O)c1ccc(OC2=NO[C@@H](c3cnc(-c4ccccc4)s3)C2)cn1 [II-28a]
≤ 100 nM	CS(=O)(=O)c1ccc(OC2=NO[C@H](c3cnc(-c4ccccc4)s3)C2)cn1 [II-28b]
≤ 100 nM	C[C@]1(c2cnc(-c3ccccc3)s2)CC(Oc2ccc(S(C)(=O)=O)nc2)=NO1 [II-29a]
≤ 100 nM	C[C@@]1(c2cnc(-c3ccccc3)s2)CC(Oc2ccc(S(C)(=O)=O)nc2)=NO1 [II-29b]
